Laboratory results as given in the kinase profiling compilation of Christmann-Franck et al. (2016).

Key:
Assay in all cases: radiometric filter-binding kinase assay, Kinase HotSpot
Details in all cases: compound 0.5 µM; ATP 10 µM
[1] = biological target: AKT1 (human) (UniProt P31749)
[2] = biological target: AKT2 (human) (UniProt P31751)
[3] = biological target: AURKA (human) (UniProt O14965)
[4] = biological target: AURKB (human) (UniProt Q96GD4)
[5] = biological target: AXL (human) (UniProt P30530)
[6] = biological target: CAMK1G (human) (UniProt Q96NX5)
[7] = biological target: CAMKK1 (human) (UniProt Q8N5S9)
[8] = biological target: CDK7 CCNH MNAT1 (human) (UniProt P50613+P51948+P51946)
[9] = biological target: CSNK1G2 (human) (UniProt P78368)
[10] = biological target: CSNK1G3 (human) (UniProt Q9Y6M4)
[11] = biological target: DAPK2 (human) (UniProt Q9UIK4)
[12] = biological target: DMPK (human) (UniProt Q09013)
[13] = biological target: DYRK1B (human) (UniProt Q9Y463)
[14] = biological target: DYRK2 (human) (UniProt Q92630)
[15] = biological target: EPHA3 (human) (UniProt P29320)
[16] = biological target: FES (human) (UniProt P07332)
[17] = biological target: FGFR1 (human) (UniProt P11362)
[18] = biological target: FGR (human) (UniProt P09769)
[19] = biological target: INSR (human) (UniProt P06213)
[20] = biological target: IRAK4 (human) (UniProt Q9NWZ3)
[21] = biological target: LCK (human) (UniProt P06239)
[22] = biological target: MAP3K3 (human) (UniProt Q99759)
[23] = biological target: MAP4K4 (human) (UniProt O95819)
[24] = biological target: MAPK12 (human) (UniProt P53778)
[25] = biological target: MAPKAPK2 (human) (UniProt P49137)
[26] = biological target: MAPKAPK5 (human) (UniProt Q8IW41)
[27] = biological target: MARK2 (human) (UniProt Q7KZI7)
[28] = biological target: NEK3 (human) (UniProt P51956)
[29] = biological target: NEK6 (human) (UniProt Q9HC98)
[30] = biological target: NTRK3 (human) (UniProt Q16288)
[31] = biological target: NUAK1 (human) (UniProt O60285)
[32] = biological target: PIM2 (human) (UniProt Q9P1W9)
[33] = biological target: PRKCB1 (human) (UniProt P05771)
[34] = biological target: PRKCZ (human) (UniProt Q05513)
[35] = biological target: PTK6 (human) (UniProt Q13882)
[36] = biological target: STK16 (human) (UniProt O75716)
[37] = biological target: STK4 (human) (UniProt Q13043)
[38] = biological target: TAOK1 (human) (UniProt Q7L7X3)
[39] = biological target: TTK (human) (UniProt P33981)
[40] = biological target: TXK (human) (UniProt P42681)
[41] = biological target: EPHB4 (human) (UniProt P54760)
[42] = biological target: STK3 (human) (UniProt Q13188)

Sequence of AXL (human) (P30530 whole entry, looked up): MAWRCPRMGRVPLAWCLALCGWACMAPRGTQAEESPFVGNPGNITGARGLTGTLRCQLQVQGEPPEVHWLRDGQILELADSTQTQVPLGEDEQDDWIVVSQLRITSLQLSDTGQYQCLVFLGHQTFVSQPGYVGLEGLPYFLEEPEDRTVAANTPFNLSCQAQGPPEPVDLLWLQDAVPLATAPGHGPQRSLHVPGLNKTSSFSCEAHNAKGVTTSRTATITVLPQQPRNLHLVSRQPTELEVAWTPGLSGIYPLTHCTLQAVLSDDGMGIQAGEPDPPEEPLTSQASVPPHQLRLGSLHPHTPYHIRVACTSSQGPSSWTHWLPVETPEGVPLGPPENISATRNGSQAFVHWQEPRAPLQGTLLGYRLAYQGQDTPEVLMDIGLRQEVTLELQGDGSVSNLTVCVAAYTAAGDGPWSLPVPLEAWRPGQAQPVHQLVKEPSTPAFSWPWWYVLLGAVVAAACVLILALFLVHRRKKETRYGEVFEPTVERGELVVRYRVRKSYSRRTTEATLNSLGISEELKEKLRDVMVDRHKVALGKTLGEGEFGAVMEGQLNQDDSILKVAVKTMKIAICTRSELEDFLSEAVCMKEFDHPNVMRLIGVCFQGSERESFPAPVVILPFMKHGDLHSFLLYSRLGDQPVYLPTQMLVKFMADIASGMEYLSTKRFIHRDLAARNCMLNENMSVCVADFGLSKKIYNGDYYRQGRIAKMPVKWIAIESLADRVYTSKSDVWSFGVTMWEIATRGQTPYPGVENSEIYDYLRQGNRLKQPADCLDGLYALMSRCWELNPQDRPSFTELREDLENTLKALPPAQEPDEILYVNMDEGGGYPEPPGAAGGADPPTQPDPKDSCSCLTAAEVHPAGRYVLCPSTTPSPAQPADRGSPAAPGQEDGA
Sequence of AKT1 (human) (P31749 whole entry, looked up): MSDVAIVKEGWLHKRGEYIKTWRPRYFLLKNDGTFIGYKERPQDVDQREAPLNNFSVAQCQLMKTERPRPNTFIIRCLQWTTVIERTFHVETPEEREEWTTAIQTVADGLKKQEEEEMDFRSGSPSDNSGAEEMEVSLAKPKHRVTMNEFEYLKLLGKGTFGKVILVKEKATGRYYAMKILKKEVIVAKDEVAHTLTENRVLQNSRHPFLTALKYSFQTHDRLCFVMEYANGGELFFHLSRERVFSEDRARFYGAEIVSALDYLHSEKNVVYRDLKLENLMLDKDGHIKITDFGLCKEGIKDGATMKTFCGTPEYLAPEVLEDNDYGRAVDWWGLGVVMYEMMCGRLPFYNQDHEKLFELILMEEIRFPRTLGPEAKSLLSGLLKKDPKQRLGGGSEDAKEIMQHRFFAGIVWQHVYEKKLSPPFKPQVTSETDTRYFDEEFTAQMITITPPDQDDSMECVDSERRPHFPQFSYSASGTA
Sequence of TAOK1 (human) (Q7L7X3 whole entry, looked up): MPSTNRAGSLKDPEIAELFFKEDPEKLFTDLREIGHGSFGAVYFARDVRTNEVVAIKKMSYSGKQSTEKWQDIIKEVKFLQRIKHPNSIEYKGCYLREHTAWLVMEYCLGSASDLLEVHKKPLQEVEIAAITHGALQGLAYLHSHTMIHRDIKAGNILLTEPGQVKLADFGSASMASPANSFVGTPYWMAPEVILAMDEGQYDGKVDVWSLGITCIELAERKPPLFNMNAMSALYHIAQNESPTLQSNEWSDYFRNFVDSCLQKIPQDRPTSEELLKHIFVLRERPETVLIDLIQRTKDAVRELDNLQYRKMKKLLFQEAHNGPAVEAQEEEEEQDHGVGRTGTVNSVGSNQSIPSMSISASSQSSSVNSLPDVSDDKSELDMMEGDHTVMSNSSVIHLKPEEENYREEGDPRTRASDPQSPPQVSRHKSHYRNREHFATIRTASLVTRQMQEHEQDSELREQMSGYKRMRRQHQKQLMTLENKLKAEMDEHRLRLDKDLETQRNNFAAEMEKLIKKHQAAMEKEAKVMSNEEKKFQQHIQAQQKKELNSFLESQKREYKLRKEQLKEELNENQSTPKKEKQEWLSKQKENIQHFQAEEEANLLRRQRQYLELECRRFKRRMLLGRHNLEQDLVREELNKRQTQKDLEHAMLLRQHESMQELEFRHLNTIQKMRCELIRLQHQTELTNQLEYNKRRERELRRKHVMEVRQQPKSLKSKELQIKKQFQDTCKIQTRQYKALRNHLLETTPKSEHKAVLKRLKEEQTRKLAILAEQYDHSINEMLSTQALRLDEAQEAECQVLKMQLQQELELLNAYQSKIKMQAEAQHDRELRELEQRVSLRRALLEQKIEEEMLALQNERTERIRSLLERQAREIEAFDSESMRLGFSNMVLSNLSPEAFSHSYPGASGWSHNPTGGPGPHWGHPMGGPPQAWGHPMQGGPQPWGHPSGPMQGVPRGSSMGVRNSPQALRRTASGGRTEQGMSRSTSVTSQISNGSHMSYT
Sequence of NEK3 (human) (P51956 whole entry, looked up): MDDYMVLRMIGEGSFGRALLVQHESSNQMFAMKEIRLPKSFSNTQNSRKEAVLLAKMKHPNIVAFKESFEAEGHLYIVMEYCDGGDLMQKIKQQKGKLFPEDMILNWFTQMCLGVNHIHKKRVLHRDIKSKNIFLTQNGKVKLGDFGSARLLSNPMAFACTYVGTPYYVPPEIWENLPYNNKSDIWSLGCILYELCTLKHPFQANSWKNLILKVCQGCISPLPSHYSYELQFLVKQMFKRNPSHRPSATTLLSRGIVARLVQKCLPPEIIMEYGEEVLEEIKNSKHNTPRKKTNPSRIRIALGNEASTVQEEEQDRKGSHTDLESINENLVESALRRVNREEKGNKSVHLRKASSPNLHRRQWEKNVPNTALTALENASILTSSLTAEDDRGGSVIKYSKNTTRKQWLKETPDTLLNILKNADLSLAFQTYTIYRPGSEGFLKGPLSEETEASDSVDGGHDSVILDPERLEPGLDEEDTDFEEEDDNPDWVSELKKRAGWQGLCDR
Sequence of MAPKAPK5 (human) (Q8IW41 whole entry, looked up): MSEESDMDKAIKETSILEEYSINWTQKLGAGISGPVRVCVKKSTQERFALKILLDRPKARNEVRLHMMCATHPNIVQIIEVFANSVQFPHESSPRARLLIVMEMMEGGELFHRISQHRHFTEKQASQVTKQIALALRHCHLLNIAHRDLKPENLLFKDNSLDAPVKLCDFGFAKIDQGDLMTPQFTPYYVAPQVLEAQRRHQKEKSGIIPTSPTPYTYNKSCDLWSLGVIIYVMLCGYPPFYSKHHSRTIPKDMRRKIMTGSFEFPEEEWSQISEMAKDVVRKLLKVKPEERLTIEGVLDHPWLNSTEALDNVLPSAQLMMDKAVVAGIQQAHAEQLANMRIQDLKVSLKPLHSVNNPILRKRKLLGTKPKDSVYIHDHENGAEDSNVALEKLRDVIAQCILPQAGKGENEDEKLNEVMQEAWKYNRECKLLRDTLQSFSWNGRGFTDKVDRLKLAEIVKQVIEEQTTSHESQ
Sequence of TXK (human) (P42681 whole entry, looked up): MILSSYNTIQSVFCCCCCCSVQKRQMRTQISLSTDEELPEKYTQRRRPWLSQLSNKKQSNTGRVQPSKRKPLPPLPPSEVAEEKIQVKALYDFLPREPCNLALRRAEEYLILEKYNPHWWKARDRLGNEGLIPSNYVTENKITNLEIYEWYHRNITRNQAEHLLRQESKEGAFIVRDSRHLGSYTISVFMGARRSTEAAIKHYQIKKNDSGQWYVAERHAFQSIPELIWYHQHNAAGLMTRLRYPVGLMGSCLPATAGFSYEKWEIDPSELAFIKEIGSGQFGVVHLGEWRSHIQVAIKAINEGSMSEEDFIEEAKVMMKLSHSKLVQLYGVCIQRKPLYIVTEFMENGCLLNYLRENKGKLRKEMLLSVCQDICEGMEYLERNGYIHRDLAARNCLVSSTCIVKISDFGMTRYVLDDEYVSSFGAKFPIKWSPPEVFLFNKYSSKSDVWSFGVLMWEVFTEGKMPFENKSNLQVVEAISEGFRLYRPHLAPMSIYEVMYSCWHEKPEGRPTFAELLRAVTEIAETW
Sequence of PRKCZ (human) (Q05513 whole entry, looked up): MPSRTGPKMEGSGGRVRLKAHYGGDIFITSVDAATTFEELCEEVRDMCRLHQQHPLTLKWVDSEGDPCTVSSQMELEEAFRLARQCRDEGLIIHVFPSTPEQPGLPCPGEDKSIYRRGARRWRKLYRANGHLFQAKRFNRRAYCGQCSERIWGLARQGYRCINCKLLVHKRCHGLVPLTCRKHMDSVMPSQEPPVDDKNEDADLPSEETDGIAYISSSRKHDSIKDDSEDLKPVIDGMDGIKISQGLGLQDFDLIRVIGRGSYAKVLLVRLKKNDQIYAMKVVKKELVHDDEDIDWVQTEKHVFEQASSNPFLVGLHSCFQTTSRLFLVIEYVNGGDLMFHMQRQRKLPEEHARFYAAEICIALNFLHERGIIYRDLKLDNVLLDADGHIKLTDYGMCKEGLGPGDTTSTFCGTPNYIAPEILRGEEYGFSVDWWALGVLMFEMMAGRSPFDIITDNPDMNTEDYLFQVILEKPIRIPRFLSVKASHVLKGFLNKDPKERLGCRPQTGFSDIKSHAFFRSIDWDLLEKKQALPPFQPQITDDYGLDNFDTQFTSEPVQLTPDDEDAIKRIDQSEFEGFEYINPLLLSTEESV
Sequence of PTK6 (human) (Q13882 whole entry, looked up): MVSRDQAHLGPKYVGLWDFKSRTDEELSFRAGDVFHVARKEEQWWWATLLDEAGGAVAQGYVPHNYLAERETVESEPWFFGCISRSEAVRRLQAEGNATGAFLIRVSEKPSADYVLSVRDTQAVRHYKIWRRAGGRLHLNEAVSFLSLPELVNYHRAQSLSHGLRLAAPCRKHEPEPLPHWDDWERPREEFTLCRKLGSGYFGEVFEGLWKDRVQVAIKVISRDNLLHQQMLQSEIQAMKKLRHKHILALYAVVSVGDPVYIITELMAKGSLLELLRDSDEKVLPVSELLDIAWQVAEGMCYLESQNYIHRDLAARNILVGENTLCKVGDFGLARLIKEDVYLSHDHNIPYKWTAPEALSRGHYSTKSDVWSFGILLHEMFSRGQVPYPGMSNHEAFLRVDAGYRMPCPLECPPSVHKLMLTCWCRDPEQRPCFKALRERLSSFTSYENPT

`CC(C)(C)c1cc(C=C(C#N)C#N)cc(Br)c1O` showed a residual activity [1] of 108%, a residual activity [2] of 97.7% and a residual activity [3] of 89.8%. The residual activity [4] was 97.1%, the residual activity [5] was 103% and the residual activity [6] was 104%. It also gave a residual activity [7] of 120%, a residual activity [8] of 98.5% and a residual activity [9] of 100%. The residual activity [10] was 85.8%, the residual activity [11] was 108% and the residual activity [12] was 96.9%. The residual activity [13] was 103%, the residual activity [14] was 104% and the residual activity [15] was 102%. For the same compound, the residual activity [16] was 105%, the residual activity [17] was 95.9% and the residual activity [18] was 75.4%. It also gave a residual activity [19] of 105%, a residual activity [20] of 182% and a residual activity [21] of 87.8%. For the same compound, the residual activity [22] was 118%, the residual activity [23] was 96.2% and the residual activity [24] was 102%. It also gave a residual activity [25] of 92.3%, a residual activity [26] of 97.4% and a residual activity [27] of 81.6%. The residual activity [28] was 96.6%, the residual activity [29] was 111% and the residual activity [30] was 104%. For the same compound, the residual activity [31] was 95.4%, the residual activity [32] was 115% and the residual activity [33] was 102%. It also gave a residual activity [34] of 102%, a residual activity [35] of 91.4% and a residual activity [36] of 99.2%. The residual activity [37] was 90.5%, the residual activity [38] was 97.9% and the residual activity [39] was 101%. For the same compound, the residual activity [40] was 108%.

`CO[C@@H]1[C@H](N(C)C(=O)c2ccccc2)C[C@H]2O[C@]1(C)n1c3ccccc3c3c4c(c5c6ccccc6n2c5c31)C(=O)NC4` gave a residual activity [1] of 81.3%, a residual activity [3] of 4.48% and a residual activity [4] of 2.96%. It also gave a residual activity [5] of 106%, a residual activity [7] of 20.4% and a residual activity [9] of 98.3%. The residual activity [10] was 95.3%, the residual activity [11] was 105% and the residual activity [12] was 112%. It also gave a residual activity [13] of 35.6%, a residual activity [14] of 108% and a residual activity [41] of 110%. It also gave a residual activity [16] of 48.3%, a residual activity [17] of 36.1% and a residual activity [18] of 17.4%. The residual activity [19] was 106%, the residual activity [20] was 71.5% and the residual activity [21] was 19.8%. The residual activity [22] was 31%, the residual activity [24] was 95.8% and the residual activity [25] was 97.8%. It also gave a residual activity [26] of 92%, a residual activity [28] of 107% and a residual activity [29] of 110%. It also gave a residual activity [31] of 2.71%, a residual activity [34] of 98.6% and a residual activity [35] of 96.2%. It also gave a residual activity [36] of 47.9%, a residual activity [42] of 1.93% and a residual activity [37] of 5.58%. It also gave a residual activity [38] of 60.8%, a residual activity [39] of 55% and a residual activity [40] of 71.7%.

`O=C1c2ccccc2-c2nc3nnnn3nc21` gave a residual activity [1] of 79.7%, a residual activity [2] of 55.8% and a residual activity [3] of 71.4%. It also gave a residual activity [4] of 84.7%, a residual activity [5] of 10.3% and a residual activity [6] of 28.5%. For the same compound, the residual activity [7] was 74.9%, the residual activity [8] was 94.1% and the residual activity [9] was 82.2%. The residual activity [10] was 80.3%, the residual activity [11] was 83.4% and the residual activity [12] was 84.8%. For the same compound, the residual activity [13] was 81%, the residual activity [14] was 113% and the residual activity [15] was 81.6%. For the same compound, the residual activity [41] was 97.1%, the residual activity [16] was 87.6% and the residual activity [17] was 24.2%. It also gave a residual activity [18] of 79.8%, a residual activity [19] of 32.3% and a residual activity [20] of 96.9%. For the same compound, the residual activity [21] was 70.5%, the residual activity [22] was 134% and the residual activity [23] was 89%. It also gave a residual activity [24] of 92.5%, a residual activity [25] of 104% and a residual activity [26] of 66.9%. The residual activity [27] was 94.2%, the residual activity [28] was 111% and the residual activity [29] was 96.3%. For the same compound, the residual activity [30] was 87.2%, the residual activity [31] was 89.8% and the residual activity [32] was 92.8%. For the same compound, the residual activity [33] was 83.1%, the residual activity [34] was 99.1% and the residual activity [35] was 111%. For the same compound, the residual activity [36] was 80.5%, the residual activity [37] was 87.8% and the residual activity [38] was 90.2%. The residual activity [39] was 125% and the residual activity [40] was 90.8%.
